Source: patent publication US9199977B2, “Crystal having crystal habits and pharmaceutical composition obtained by processing the crystal” (POLA PHARMA INC., priority 2012, dated 2015)

Key:
[1] = Elution or dissolution test of luliconazole crystals in anhydrous ethanol; type: physicochemical; conditions: 1 g luliconazole in 500 mL anhydrous ethanol, constant stirring, room temperature
Procedure: (§1) Ethanol containing 10% water was added to luliconazole, followed by being heated, stirred, and filtrated while applying the heat. A filtrate was quickly cooled with an ice bath and the wall surface was scraped with a spatula to perform the recrystallization. Crystals were collected by filtration, followed by being dried by using phosphorus pentaoxide to obtain Crystal 1 of the present invention. In distinct Comparative Example, the same process or treatment was performed while replacing the solvent with a mixture of ethyl acetate/n-hexane (5:1) to obtain Crystal of Comparative Example. The elution or dissolution test was performed for the two types of the crystals to investigate the elution or dissolution profile. After confirming the dissolution of all crystals, the Z isomer and the SE isomer, which were the isomers generated or formed in the solution, were analyzed and quantitatively measured by HPLC assay.
(§2) In the elution or dissolution test, 500 mL of anhydrous ethanol was used as the solvent, and 1 g of luliconazole was dissolved under constant stirring at room temperature. The time, which was required for the dissolution, was simultaneously measured. According to Table 1, it is appreciated that the time required for the dissolution is short for Crystal 1, and thus the generation of the Z isomer and the SE isomer as the isomers is suppressed in the dissolving step.

[2] = HPLC quantification of Z and SE isomers generated in the solution after dissolution; type: physicochemical; conditions: in ethanol solution after dissolution of all crystals
Procedure: as §1, §2
The condition for HPLC was as follows. Column: CHIRALCEL OD-RH 4.6×150 mm, column temperature: 35° C., mobile phase: mixture of methanol/2% aqueous solution of potassium hexafluorophosphate (85:15, v/v), flow rate: 0.6 mL/min., detection: 295 nm).

Row | Compound | Time required until dissolution [1] [min] | Amount of generation of SE isomer [2] [%] | Amount of generation of Z isomer [2] [%]
1 | N#C/C(=C1/SC[C@@H](c2ccc(Cl)cc2Cl)S1)n1ccnc1 [Crystal 1, luliconazole] | 200 | 0.06 | 0.06
2 | N#C/C(=C1/SC[C@@H](c2ccc(Cl)cc2Cl)S1)n1ccnc1 [Crystal of Comp. Ex., luliconazole] | 300 | 0.09 | 0.13
